Measurements from ChEMBL document CHEMBL3751741, “Discovery of a potent and highly fluorescent sirtuin inhibitor” (Medchemcomm, 2015).
≈ marks a conversion by molar mass, not a printed value. Calls of active or inactive are those of the source. No cut-off for these calls is given here.

Tests used:
[1] = target: T1, NAD-dependent protein deacetylase sirtuin-2 (Homo sapiens) (UniProt Q8IXJ6); assay: Competitive inhibition of recombinant human C-terminal His-tagged SIRT2 (13 to 319 residues) using human p53 derived peptides as substrate incubated for 45 mins by fluorescence assay in presence of increasing NAD+ level
T1 sequence (whole entry): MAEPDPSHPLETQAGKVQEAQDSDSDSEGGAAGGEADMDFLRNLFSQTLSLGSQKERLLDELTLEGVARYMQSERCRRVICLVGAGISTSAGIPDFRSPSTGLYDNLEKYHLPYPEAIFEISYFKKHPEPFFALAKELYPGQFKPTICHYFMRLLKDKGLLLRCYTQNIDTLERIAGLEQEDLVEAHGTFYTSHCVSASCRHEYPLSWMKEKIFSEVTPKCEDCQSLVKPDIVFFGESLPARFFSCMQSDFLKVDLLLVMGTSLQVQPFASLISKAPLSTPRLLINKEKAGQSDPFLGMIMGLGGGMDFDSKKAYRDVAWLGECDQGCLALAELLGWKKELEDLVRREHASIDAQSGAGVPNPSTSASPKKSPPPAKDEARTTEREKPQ

[2] = Aqueous solubility of compound in water containing 0.5% DMSO by UV-spectrophotometry analysis; format: physicochemical
[3] = target: T1, NAD-dependent protein deacetylase sirtuin-2 (Homo sapiens); assay: Reversible inhibition of recombinant human C-terminal His-tagged SIRT2 (13 to 319 residues) using human p53 derived peptides as substrate at 10 uM incubated for 45 mins by fluorescence assay
[4] = target: T1, NAD-dependent protein deacetylase sirtuin-2 (Homo sapiens); assay: Inhibition of SIRT2 in human HCT116 cells assessed as increase in alpha-tubulin acetylation up to 50 uM incubated for 24 hrs by Western blotting method; format: cell-based; conditions: HCT-116
CCRF-CEM = assay: Antiproliferative activity against human CCRF-CEM cells assessed as cell viability at 50 uM after 72 hrs by MTS assay (reference value: 100 +/- 5.54%); format: functional; conditions: read-out: Activity
[5] = target: T2, NAD-dependent protein deacetylase sirtuin-2 (Homo sapiens, UniProt Q8IXJ6); assay: Inhibition of recombinant human C-terminal His-tagged SIRT2 (13 to 319 residues) using human p53 derived peptides as substrate incubated for 45 mins by fluorescence assay
T2 sequence (Q8IXJ6 whole entry): T1 sequence (whole entry)

[6] = Drug uptake in cytoplasm of human CCD18 cells at 50 uM by fluorescence microscopy; format: ADME, cell-based; conditions: ccd18, 50 µM
[7] = Drug uptake in cytoplasm of human HCT116 cells at 50 uM by fluorescence microscopy; format: ADME, cell-based; conditions: hct-116, 50 µM
MDA-MB-468 = assay: Antiproliferative activity against human MDA-MB-468 cells assessed as cell viability at 50 uM after 72 hrs by MTS assay (reference value: 100 +/- 8.06%); format: functional; conditions: MDA-MB-468, 72 h, read-out: Activity
[8] = target: T1, NAD-dependent protein deacetylase sirtuin-2 (Homo sapiens); assay: Inhibition of recombinant human C-terminal His-tagged SIRT2 (13 to 319 residues) using human p53 derived peptides as substrate at 50 uM incubated for 45 mins by fluorescence assay
[9] = Antiproliferative activity against human HCT116 cells assessed as cell viability at 50 uM after 72 hrs by MTS assay (reference value: 100 +/- 6.01%); format: functional; conditions: HCT-116, 72 h, read-out: Activity
[10] = target: T3, NAD-dependent protein deacetylase sirtuin-1 (Homo sapiens, UniProt Q96EB6); assay: Inhibition of recombinant human N-terminal GST-tagged SIRT1 (193 to 741 residues) using human p53 derived peptides as substrate incubated for 45 mins by fluorescence assay
T3 sequence (Q96EB6 whole entry): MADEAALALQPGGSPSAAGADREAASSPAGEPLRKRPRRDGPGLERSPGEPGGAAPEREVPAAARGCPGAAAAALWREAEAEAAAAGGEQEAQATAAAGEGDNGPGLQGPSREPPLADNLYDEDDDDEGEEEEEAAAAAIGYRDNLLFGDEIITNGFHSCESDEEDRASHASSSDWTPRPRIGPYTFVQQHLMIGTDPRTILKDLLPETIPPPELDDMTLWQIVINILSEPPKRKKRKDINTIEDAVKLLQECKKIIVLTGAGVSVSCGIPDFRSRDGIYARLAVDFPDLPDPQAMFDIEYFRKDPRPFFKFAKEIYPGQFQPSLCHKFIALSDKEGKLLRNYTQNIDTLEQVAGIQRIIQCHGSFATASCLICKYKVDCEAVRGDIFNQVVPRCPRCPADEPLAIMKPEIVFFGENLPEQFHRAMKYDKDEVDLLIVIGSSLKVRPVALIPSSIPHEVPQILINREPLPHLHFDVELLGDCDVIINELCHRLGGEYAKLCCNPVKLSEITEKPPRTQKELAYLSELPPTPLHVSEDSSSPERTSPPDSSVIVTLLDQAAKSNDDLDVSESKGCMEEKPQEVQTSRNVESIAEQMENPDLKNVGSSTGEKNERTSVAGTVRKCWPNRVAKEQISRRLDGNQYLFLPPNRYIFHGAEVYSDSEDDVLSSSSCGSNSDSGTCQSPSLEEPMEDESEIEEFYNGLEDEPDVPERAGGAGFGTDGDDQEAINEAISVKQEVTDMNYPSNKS

[11] = target: T4, NAD-dependent protein deacetylase sirtuin-1 (Homo sapiens) (UniProt Q96EB6); assay: Inhibition of recombinant human N-terminal GST-tagged SIRT1 (193 to 741 residues) using human p53 derived peptides as substrate at 50 uM incubated for 45 mins by fluorescence assay
T4 sequence (whole entry): T3 sequence (Q96EB6 whole entry)

Row | SMILES | inhibition [1] | solubility [2] [µM] | inhibition [3] | inhibition [4] | IC50 [5] [µM] | Drug uptake [6] | Drug uptake [7] | inhibition [8] [%] | IC50 [10] [µM] | inhibition [11] [%] | viability at 50 µM (CCRF-CEM) [%] | viability at 50 µM (MDA-MB-468) [%] | viability at 50 µM [9] [%]
1 | CCOC(=O)c1ccc2[nH]c(-c3ccc(N4CCCCC4)cc3)nc2c1 | Active | 59 (≈ 20.6 µg/mL) | Active | Active | 9 | Active | Active | 93.2 |  |  | 36.3 | 34 | 15.9
2 | CCOC(=O)c1ccc2[nH]c(-c3ccc(C(C)(C)C)cc3)nc2c1 |  |  |  |  |  |  |  | 50.2 |  |  | 82.2 | 54.6 | 54.2
3 | CCOC(=O)c1ccc2[nH]c(-c3ccc(N4CCOCC4)cc3)nc2c1 |  |  |  |  | 52.9 |  |  | 60.7 | 57.5 | 37.8 | 37.8 | 42.6 | 54.5
4 | CCOC(=O)c1ccc2[nH]c(-c3ccc(OC)cc3)nc2c1 |  |  |  |  |  |  |  | 26 |  |  | 87.4 | 82.8 | 75.6

Continued, in another order:

Row | inhibition [1] | solubility [2] [µM] | inhibition [3] | inhibition [4] | IC50 [5] [µM] | Drug uptake [6] | Drug uptake [7] | inhibition [8] [%] | IC50 [10] [µM] | inhibition [11] [%] | SMILES | viability at 50 µM (CCRF-CEM) [%] | viability at 50 µM (MDA-MB-468) [%] | viability at 50 µM [9] [%]
5 |  |  |  |  |  |  |  |  | 68 |  | N#C/C(=C\c1ccc(-c2cc(Cl)ccc2Cl)o1)C(=O)Nc1cccc2ncccc12 |  |  | 
6 |  |  |  |  |  |  |  | 36.3 |  | 24.7 | CCOC(=O)c1ccc2[nH]c(-c3ccccc3)nc2c1 | 58.3 | 49.3 | 29.7
7 |  |  |  |  |  |  |  | 45.2 |  |  | CCOC(=O)c1ccc2[nH]c(-c3ccc(C)cc3)nc2c1 | 61.2 | 89.1 | 48.4
8 |  |  |  |  | 13.6 |  |  | 87.5 |  |  | CCOC(=O)c1ccc2[nH]c(-c3ccc(N(C)C)cc3)nc2c1 | 49.5 | 31.1 | 29.7
9 |  |  |  |  |  |  |  | 42.9 |  |  | CCOC(=O)c1ccc2[nH]c(-c3ccc(O)cc3)nc2c1 | 85.5 | 76.5 | 77.1
